Test results from US8637558B2 (Industry-Academic Cooperation Foundation, Chosun University, priority 2008, dated 2014).

biological target: 15-PGDH (Homo sapiens (Human), UniProt P15428); assay: Assay for the activities of 15-PGDH inhibitors (formation of NADH at 340 nm); format: biochemical; settings: purified 15-PGDH enzyme, 21 μM PGE2, 0.25 mM NAD+, pH 7.5; concentration inhibiting 50% of 15-PGDH activity
Protocol: <1-1> Expression and Purification of 15-PGDH
A 15-PGDH cDNA plasmid containing BamHI and EcoRI sites of the pGES-2T expression vector was used to transform Escherichia coli BL-21 lysS in accordance with the ordinarily used in the art. The transformed cells were grown in 500 mL LB medium containing 50 μg/mL ampicillin at 37° C. while being stirred at 220 rpm until the OD600 reached 0.6. Isopropyl β-D-thiogalactoside (1 mM) was added and the cells were allowed to grow for 12 hours at 25° C. Then, the pellets were harvested by centrifugation at 4000×g for 30 minutes at 4° C. The cell pallets were resuspended in 20 mL cell lysis buffer (1×PBS buffer (pH 7.4) containing 1 mM EDTA and 0.1 mM DTT) and sonicated (14×10 s at 4° C.). The disrupted cells were centrifuged at 4000×g for 20 minutes at 4° C. The supernatant was loaded slowly on a glutathione-sepharose 4B column, which was equilibrated at 4° C. with a cell lysis buffer (1×PBS buffer (pH 7.4) containing 1 mM EDTA and 0.1 mM DTT). The column was washed with the lysis buffer until OD280 reached below 0.005. Then, 15-PGDH was eluted from the glutathione-sepharose 4B column at room temperature for 5 minutes by using the elution buffer (50 mM Tris-HCl (pH 8.0) containing 10 mM reduced glutathione, 1 mM EDTA and 0.1 mM DTT). The concentration and the purity of the purified enzyme were determined by SDS-PAGE.
<1-2> Assay for the Activities of 15-PGDH Inhibitors
The absorbance of the reaction mixture was recorded at 340 nm so that the activities of the derivatives according to the present invention as 15-PGDH inhibitors were determined from a standard curve prepared from the absorbance of various concentrations of NADH at 340 nm.

Chain of 15-PGDH (P15428 whole entry): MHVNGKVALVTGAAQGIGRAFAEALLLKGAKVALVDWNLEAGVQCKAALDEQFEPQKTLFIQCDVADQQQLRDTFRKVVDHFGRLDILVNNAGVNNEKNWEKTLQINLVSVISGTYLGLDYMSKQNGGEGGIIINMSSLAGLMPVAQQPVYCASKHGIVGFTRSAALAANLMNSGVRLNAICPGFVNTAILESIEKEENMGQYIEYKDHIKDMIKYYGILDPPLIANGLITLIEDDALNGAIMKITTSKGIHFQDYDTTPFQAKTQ

| Structure (SMILES) | IC50 [nM] |
| --- | --- |
| O=C1NC(=O)/C(=C/c2ccc(OCc3ccccc3)cc2)S1 [Derivative 44, 5-(4-(benzyloxy)benzylidene)thiazolidine-2,4-dione] | 1040 |
| O=C1NC(=O)/C(=C/c2ccc(OCCC3CCCCC3)c(F)c2)S1 [Derivative 20, 5-(4-(2-cyclohexylethoxy)-3-fluorobenzylidene)thiazolidine-2,4-dione] | 50.8 |
| O=C1NC(=O)/C(=C/c2cccc(OCCC3CCCC3)c2Cl)S1 [Derivative 107, 5-[2-chloro-3-(2-cyclopentylethoxy)benzylidene]-1,3-thiazolidine-2,4-dione] | 154 |
| O=C1NC(=O)/C(=C/c2ccc(OCC3CCC(C(=O)O)CC3)cc2)S1 (stereo not shown) [Derivative 111, 4-({4-[(Z)-(2,4-dioxo-1,3-thiazolidin-5-ylidene)methyl]phenoxy}methyl)cyclohexane carboxylic acid] | 9330 |
| O=C1NC(=O)/C(=C/c2cc(F)c(OCCC3CCCCC3)c(Cl)c2)S1 [Derivative 77, 5-(3-chloro-5-fluoro-4-(2-cyclohexylethoxy)benzylidene)thiazolidine-2,4-dione] | 177 |
| O=C1NC(=O)/C(=C/c2cccc(OCCc3ccccc3)c2Cl)S1 [Derivative 73, 5-(2-chloro-3-phenylethoxybenzylidene)thiazolidine-2,4-dione] | 122 |
| CC(C)OCCOc1ccc(/C=C2\SC(=O)NC2=O)cc1Cl [Derivative 94, 5-{3-chloro-4-[2-(propan-2-yloxy)ethoxy]benzylidene}-1,3-thiazolidine-2,4-dione] | 2740 |
| O=C1NC(=O)/C(=C/c2ccc(OCCc3cccs3)c(Cl)c2)S1 [Derivative 101, 5-(3-chloro-4-(2-(thiophen-2-yl)ethoxy)benzylidene)thiazolidine-2,4-dione] | 84.1 |
| O=C1NC(=O)/C(=C/c2ccc(OCCc3ccccn3)cc2Cl)S1 [Derivative 104] | 8910 |
| Cc1cc(/C=C2\SC(=O)NC2=O)ccc1OCCC1CCCCC1 [Derivative 9, 5-(4-(2-cyclohexylethoxy)-3-methylbenzylidene)thiazolidine-2,4-dione] | 55 |
| COc1cc(/C=C2\SC(=O)NC2=O)cc(Cl)c1OCCC1CCCCC1 [Derivative 78, 5-(3-chloro-4-(2-cyclohexylethoxy)-5-methoxybenzylidene) thiazolidine-2,4-dione] | 50.6 |
| O=C1NC(=O)/C(=C/c2ccc(OCCCC3CCCCC3)cc2Cl)S1 [Derivative 97, 5-(2-chloro-4-(3-cyclohexylpropoxy)benzylidene)thiazolidine-2,4-dione] | 284 |
| O=C1NC(=O)/C(=C/c2ccc(OCCC3CCCCC3)cc2Cl)S1 [Derivative 18, 5-(2-chloro-4-(2-cyclohexylethoxy)benzylidene)thiazolidine-2,4-dione] | 19.6 |
| O=C1NC(=O)/C(=C/c2ccc(OCC3CCCCC3)cc2Cl)S1 [Derivative 96, 5-(2-chloro-4-(3-cyclohexylmethoxy)benzylidene)thiazolidine-2,4-dione] | 2450 |
| COc1ccc(/C=C2\SC(=O)NC2=O)cc1OCCc1cccs1 [Derivative 103, 5-(4-methoxy-3-(2-(thiophen-2-yl)ethoxy)benzylidene)thiazolidine-2,4-dione] | 1670 |
| O=C1NC(=O)/C(=C/c2cccc(OC3CCCCC3)c2Cl)S1 [Derivative 99, 5-(2-chloro-3-(cyclohexyloxy)benzylidene)thiazolidine-2,4-dione] | 212 |
| O=C1NC(=O)/C(=C/c2ccc(O)cc2)S1 [Derivative 39, 5-(4-hydroxybenzylidene)thiazolidine-2,4-dione] | 10100 |
| O=C1NC(=O)/C(=C/c2ccc(OCCc3ccccn3)cc2)S1 [Derivative 6, 5-(4-(2-(pyridin-2-yl)ethoxy)benzylidene)thiazolidine-2,4-dione] | 592 |
| O=C1NC(=O)/C(=C/c2ccc(OCCC3CCCC3)c(Cl)c2)S1 [Derivative 108, 5-[3-chloro-4-(2-cyclopentylethoxy)benzylidene]-1,3-thiazolidine-2,4-dione] | 99.3 |
